Results as given in patent publication US12479830B2, “Homopiperazinyl and homopiperidinyl quinazolin-4(3H)-one derivatives having multimodal activity against pain” (ESTEVE PHARMACEUTICALS, S.A., priority 2019, dated 2025).
pKi: −log10 of the molar value.

What was measured:
Human σ1 receptor = target: T1, Human σ1 receptor (Homo sapiens, UniProt Q99720); assay: Human σ1 receptor radioligand assay ([3H](+)-pentazocine binding); settings: binding to the σ1 receptor, expressed as Ki class; + also covers inhibition between 1% and 50%
T1 construct: expressed in transfected cells; host or cells: HEK-293
Procedure, shortened: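 Ki was derived from five test concentrations, or % inhibition was measured at a single 1 or 10 μM dose, against 5 nM [3H](+)-pentazocine. Incubation was 120 min at 37° C in 50 mM Tris-HCl pH 8 with 7 μg HEK-293 membranes, and 10 μM haloperidol set non-specific binding. Bound radioactivity was counted after filtration.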

[1] = target: Human α2δ-1 subunit of Cav2.2 calcium channel (Homo sapiens, UniProt P54289); assay: Human α2δ-1 subunit of Cav2.2 calcium channel assay ([3H]-gabapentin binding); settings: binding to the α2δ-1 subunit of voltage-gated calcium channels, expressed as Ki class; + also covers inhibition between 1% and 50%
Procedure, shortened: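 Affinity (Ki, five concentrations) or % inhibition at 1 or 10 μM, from displacement of 15 nM [3H]-gabapentin on human α2δ-1 membranes. Incubation 60 min, 27° C., Hepes-KOH 10 mM pH 7.4; 10 μM pregabalin defined non-specific binding; bound radioactivity counted after GF/C filtration.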

T1 sequence (Q99720 whole entry): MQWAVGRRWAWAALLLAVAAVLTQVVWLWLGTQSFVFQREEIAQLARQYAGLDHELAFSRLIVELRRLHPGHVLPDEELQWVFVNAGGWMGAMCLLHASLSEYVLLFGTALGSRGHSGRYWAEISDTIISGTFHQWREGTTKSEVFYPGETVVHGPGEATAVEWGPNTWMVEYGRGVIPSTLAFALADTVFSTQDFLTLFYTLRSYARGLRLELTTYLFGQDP
Chain of Human α2δ-1 subunit of Cav2.2 calcium channel (P54289 25-1103): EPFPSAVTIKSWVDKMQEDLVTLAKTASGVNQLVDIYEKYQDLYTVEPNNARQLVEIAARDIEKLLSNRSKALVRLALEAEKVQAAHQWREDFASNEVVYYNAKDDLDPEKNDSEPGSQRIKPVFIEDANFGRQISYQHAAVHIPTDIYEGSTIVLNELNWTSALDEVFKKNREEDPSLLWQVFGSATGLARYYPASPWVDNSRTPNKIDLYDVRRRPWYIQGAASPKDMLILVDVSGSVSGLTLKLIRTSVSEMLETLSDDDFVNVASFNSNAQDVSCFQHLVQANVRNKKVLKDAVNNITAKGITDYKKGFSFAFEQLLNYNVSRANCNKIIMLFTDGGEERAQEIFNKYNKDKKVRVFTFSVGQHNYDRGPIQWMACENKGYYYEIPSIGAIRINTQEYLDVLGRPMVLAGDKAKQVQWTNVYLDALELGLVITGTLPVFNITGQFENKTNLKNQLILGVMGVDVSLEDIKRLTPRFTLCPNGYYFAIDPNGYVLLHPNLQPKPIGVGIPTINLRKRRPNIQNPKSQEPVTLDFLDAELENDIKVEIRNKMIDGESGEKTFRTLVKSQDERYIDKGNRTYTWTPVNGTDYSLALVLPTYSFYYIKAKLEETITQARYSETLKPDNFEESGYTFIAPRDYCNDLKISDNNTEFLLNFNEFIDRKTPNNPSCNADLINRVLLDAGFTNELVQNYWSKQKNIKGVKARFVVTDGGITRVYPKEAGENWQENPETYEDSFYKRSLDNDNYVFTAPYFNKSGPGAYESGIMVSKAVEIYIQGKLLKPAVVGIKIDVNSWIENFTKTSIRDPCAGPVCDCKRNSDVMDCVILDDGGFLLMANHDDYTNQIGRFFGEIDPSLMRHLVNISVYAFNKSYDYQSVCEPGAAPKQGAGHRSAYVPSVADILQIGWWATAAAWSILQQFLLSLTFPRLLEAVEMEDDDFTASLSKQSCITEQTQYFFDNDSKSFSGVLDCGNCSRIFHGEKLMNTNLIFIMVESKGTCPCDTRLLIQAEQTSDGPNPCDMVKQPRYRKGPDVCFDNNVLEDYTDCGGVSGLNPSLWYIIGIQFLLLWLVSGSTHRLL

Structure (SMILES)	pKi (Human σ1 receptor)	pKi [1]
CCC[C@H](c1nc2ccc(F)cc2c(=O)n1CCC)N1CCCN(CC)CC1 [Example 212, (R)-2-(1-(4-ethyl-1,4-diazepan-1-yl)butyl)-6-fluoro-3-propylquinazolin-4(3H)-one]	> 6.30	> 6.30
CCC[C@H](c1nc2ccc(F)cc2c(=O)n1CC(C)C)N1CCCN(CC)CC1 [Example 215, (R)-2-(1-(4-ethyl-1,4-diazepan-1-yl)butyl)-6-fluoro-3-isobutylquinazolin-4(3H)-one]	> 6.30	> 6.30
CCC[C@H](c1nc2ccc(F)cc2c(=O)n1C)N1CCCN(CC)CC1 [Example 217, (R)-2-(1-(4-ethyl-1,4-diazepan-1-yl)butyl)-6-fluoro-3-methylquinazolin-4(3H)-one]	> 6.30	< 5.30
CCC[C@H](c1nc2ccc(F)cc2c(=O)n1CC1CC1)N1CCCN(CC)CC1 [Example 218, (R)-3-(cyclopropylmethyl)-2-(1-(4-ethyl-1,4-diazepan-1-yl)butyl)-6-fluoroquinazolin-4(3H)-one]	> 6.30	> 6.30
CCC[C@H](c1nc2ccc(F)cc2c(=O)n1CC1CC1)N1CCCN(C)CC1 [Example 219, (R)-3-(cyclopropylmethyl)-6-fluoro-2-(1-(4-methyl-1,4-diazepan-1-yl)butyl)quinazolin-4(3H)-one]	> 6.30	> 6.30
CCC[C@H](c1nc2ccc(F)cc2c(=O)n1CCC(C)C)N1CCCN(CC)CC1 [Example 221, (R)-2-(1-(4-ethyl-1,4-diazepan-1-yl)butyl)-6-fluoro-3-isopentylquinazolin-4(3H)-one]	> 6.30	< 5.30
CCC[C@H](c1nc2ccc(F)cc2c(=O)n1C(C)C)N1CCCN(C)CC1 [Example 222, (R)-6-fluoro-3-isopropyl-2-(1-(4-methyl-1,4-diazepan-1-yl)butyl)quinazolin-4(3H)-one]	6.00 to 6.30	< 5.30
CCC[C@H](c1nc2ccc(F)cc2c(=O)n1C(C)C)N1CCCN(CC)CC1 [Example 223, (R)-2-(1-(4-ethyl-1,4-diazepan-1-yl)butyl)-6-fluoro-3-isopropylquinazolin-4(3H)-one]	> 6.30	< 5.30
CCCCn1c([C@@H](CCC)N2CCCN(CC)CC2)nc2ccc(F)cc2c1=O [Example 225, (R)-3-butyl-2-(1-(4-ethyl-1,4-diazepan-1-yl)butyl)-6-fluoroquinazolin-4(3H)-one]	> 6.30	> 6.30
CCC[C@H](c1nc2cc(OC)c(F)cc2c(=O)n1CC)N1CCCN(CC)CC1 [Example 231, (R)-3-ethyl-2-(1-(4-ethyl-1,4-diazepan-1-yl)butyl)-6-fluoro-7-methoxyquinazolin-4(3H)-one]	6.00 to 6.30	> 6.30
CCC[C@H](c1nc2c(F)cc(Cl)cc2c(=O)n1CC)N1CCCN(C)CC1 [Example 234, (R)-6-chloro-3-ethyl-8-fluoro-2-(1-(4-methyl-1,4-diazepan-1-yl)butyl)quinazolin-4(3H)-one]	6.00 to 6.30	> 6.30
CCC[C@H](c1nc2ccc(F)cc2c(=O)n1CC)N1CCN[C@H](C)CC1 [Example 235, 3-ethyl-6-fluoro-2-((R)-1-((R)-5-methyl-1,4-diazepan-1-yl)butyl)quinazolin-4(3H)-one]	< 6.00	> 6.30
CCC[C@H](c1nc2ccc(F)cc2c(=O)n1CC)N1CCN[C@@H](C)CC1 [Example 236, 3-ethyl-6-fluoro-2-((R)-1-((S)-5-methyl-1,4-diazepan-1-yl)butyl)quinazolin-4(3H)-one]	> 6.30	> 6.30
CCC[C@H](c1nc2cc(F)c(OC)cc2c(=O)n1CC)N1CCN(C)C[C@@H](C)C1 [Example 237, 2-((R)-1-((R)-4,6-dimethyl-1,4-diazepan-1-yl)butyl)-3-ethyl-7-fluoro-6-methoxyquinazolin-4(3H)-one]	< 6.00	> 6.30
CCC[C@H](c1nc2cc(F)c(OC)cc2c(=O)n1CC)N1CCN(C)C[C@H](C)C1 [Example 238, 2-((R)-1-((S)-4,6-dimethyl-1,4-diazepan-1-yl)butyl)-3-ethyl-7-fluoro-6-methoxyquinazolin-4(3H)-one]	6.00 to 6.30	> 6.30

Second part, the compound after the results:

pKi (Human σ1 receptor)	pKi [1]	Structure (SMILES)
< 6.00	> 6.30	CCCC(c1nc2ccc(O)cc2c(=O)n1CC)N1CCCN(C)CC1 (stereo not shown) [Example 203, 3-Ethyl-6-hydroxy-2-(1-(4-methyl-1,4-diazepan-1-yl)butyl)quinazolin-4(3H)-one]
< 6.00	> 6.30	CCCC(c1nc2ccc(-c3ccccc3)cc2c(=O)n1CC)N1CCCN(C)CC1 (stereo not shown) [Example 204, 3-Ethyl-2-(1-(4-methyl-1,4-diazepan-1-yl)butyl)-6-phenylquinazolin-4(3H)-one]
< 6.00	> 6.30	CCCC(c1nc2ccc(CC)cc2c(=O)n1CC)N1CCCN(C)CC1 (stereo not shown) [Example 205, 3,6-diethyl-2-(1-(4-methyl-1,4-diazepan-1-yl)butyl)quinazolin-4(3H)-one]
< 6.00	> 6.30	CCCC(c1nc2ccc(NC3CCN(C)CC3)cc2c(=O)n1CC)N1CCCN(C)CC1 (stereo not shown) [Example 206, 3-Ethyl-2-(1-(4-methyl-1,4-diazepan-1-yl)butyl)-6-((1-methylpiperidin-4-yl)amino)quinazolin-4(3H)-one]
6.00 to 6.30	> 6.30	CCCC(c1nc2ccc(Cc3ccccc3)cc2c(=O)n1CC)N1CCCN(C)CC1 (stereo not shown) [Example 207, 6-Benzyl-3-ethyl-2-(1-(4-methyl-1,4-diazepan-1-yl)butyl)quinazolin-4(3H)-one]
< 6.00	< 5.30	CCCC(c1nc2ccc(Br)cc2c(=O)n1CC(=O)O)N1CCCN(C)CC1 (stereo not shown) [Example 208, 2-(6-Bromo-2-(1-(4-methyl-1,4-diazepan-1-yl)butyl)-4-oxoquinazolin-3(4H)-yl)acetic acid]
> 6.30	> 6.30	CCC[C@H](c1nc2ccc(F)cc2c(=O)n1CC)N1CCCN(C)CC1 [Example 209, (R)-3-Ethyl-6-fluoro-2-(1-(4-methyl-1,4-diazepan-1-yl)butyl)quinazolin-4(3H)-one]
> 6.30	> 6.30	CCC[C@H](c1nc2ccc(F)cc2c(=O)n1CC)N1CCCN(CC)CC1 [Example 210, (R)-3-ethyl-2-(1-(4-ethyl-1,4-diazepan-1-yl)butyl)-6-fluoroquinazolin-4(3H)-one]
> 6.30	> 6.30	CCC[C@H](c1nc2ccc(F)cc2c(=O)n1CCC)N1CCCN(C)CC1 [Example 211, (R)-6-fluoro-2-(1-(4-methyl-1,4-diazepan-1-yl)butyl)-3-propylquinazolin-4(3H)-one]
6.00 to 6.30	> 6.30	CCC[C@H](c1nc2ccc(I)cc2c(=O)n1CC)N1CCCN(C)CC1 [Example 213, (R)-3-ethyl-6-iodo-2-(1-(4-methyl-1,4-diazepan-1-yl)butyl)quinazolin-4(3H)-one]
> 6.30	> 6.30	CCC[C@H](c1nc2ccc(F)cc2c(=O)n1CC(C)C)N1CCCN(C)CC1 [Example 214, (R)-6-fluoro-3-isobutyl-2-(1-(4-methyl-1,4-diazepan-1-yl)butyl)quinazolin-4(3H)-one]
> 6.30	5.30 to 6.30	CCC[C@H](c1nc2ccc(F)cc2c(=O)n1C)N1CCCN(C)CC1 [Example 216, (R)-6-fluoro-3-methyl-2-(1-(4-methyl-1,4-diazepan-1-yl)butyl)quinazolin-4(3H)-one]
< 6.00	> 6.30	CCC[C@H](c1nc2cc(F)c(OC)cc2c(=O)n1CC)N1CCCN(C)CC1 [Example 220, (R)-3-ethyl-7-fluoro-6-methoxy-2-(1-(4-methyl-1,4-diazepan-1-yl)butyl)quinazolin-4(3H)-one]
> 6.30	> 6.30	CCCCn1c([C@@H](CCC)N2CCCN(C)CC2)nc2ccc(F)cc2c1=O [Example 224, (R)-3-butyl-6-fluoro-2-(1-(4-methyl-1,4-diazepan-1-yl)butyl)quinazolin-4(3H)-one]
> 6.30	< 5.30	CCC[C@H](c1nc2ccc(F)cc2c(=O)n1CCC(C)C)N1CCCN(C)CC1 [Example 226, (R)-6-fluoro-3-isopentyl-2-(1-(4-methyl-1,4-diazepan-1-yl)butyl)quinazolin-4(3H)-one]
> 6.30	> 6.30	CCC[C@H](c1nc2ccc(F)cc2c(=O)n1Cc1ccoc1)N1CCCN(C)CC1 [Example 227]
> 6.30	5.30 to 6.30	CCC[C@H](c1nc2ccc(F)cc2c(=O)n1Cc1ccoc1)N1CCCN(CC)CC1 [Example 228, (R)-2-(1-(4-ethyl-1,4-diazepan-1-yl)butyl)-6-fluoro-3-(furan-3-ylmethyl)quinazolin-4(3H)-one]
6.00 to 6.30	> 6.30	CCC[C@H](c1nc2cc(OC)c(F)cc2c(=O)n1CC)N1CCCN(C)CC1 [Example 230, (R)-3-ethyl-6-fluoro-7-methoxy-2-(1-(4-methyl-1,4-diazepan-1-yl)butyl)quinazolin-4(3H)-one]
> 6.30	> 6.30	CCC[C@H](c1nc2cc(F)c(F)cc2c(=O)n1CC)N1CCCN(C)CC1 [Example 232, (R)-3-ethyl-6,7-difluoro-2-(1-(4-methyl-1,4-diazepan-1-yl)butyl)quinazolin-4(3H)-one]
> 6.30	> 6.30	CCC[C@H](c1nc2ccc(F)c(F)c2c(=O)n1CC)N1CCCN(C)CC1 [Example 233, (R)-3-ethyl-5,6-difluoro-2-(1-(4-methyl-1,4-diazepan-1-yl)butyl)quinazolin-4(3H)-one]
